Numbers after ± are expanded uncertainties.

We go through five molecules from the NIST ThermoML archive (doi:10.1021/je020130i).

The conditions of this data set: 363.15 K; Liquid.
On to `CNC=O` [N-methylformamide], for which the “vapor or sublimation pressure” value is 2.1 ± 0.09 kPa [middle of 4 runs].

On to `CC#N` [acetonitrile], for which the “vapor or sublimation pressure” value is listed as 131.21 ± 1.7 kPa.

With `c1ccccc1` [benzene], the “vapor or sublimation pressure” value is on record as 137.28 ± 1.8 kPa. The figure for `Clc1ccccc1` [chlorobenzene] is 28.33 ± 0.42 kPa. `CCCCCC` [hexane]: the “vapor or sublimation pressure” value is recorded as 188.05 ± 2.4 kPa.
